We go through six molecules from ChEMBL document CHEMBL1146472, “Cytotoxic cyclotides from Viola tricolor” (J Nat Prod, 2004).

Where a SMILES comes first, the peptide text is derived from it. Bridges are numbered along the chain shown (N, C = ends).

For one assay, the system named is RPMI-8226. Nature of the assay: Cytotoxicity against human RPMI8226/S cells after 72 hrs by trypan blue exclusion method. Format: functional, cell-based.
A further assay has as its system U-937/GTB. Nature of the assay: Cytotoxicity against human U937/GTB cells after 72 hrs by trypan blue exclusion method. Format: functional, cell-based.

For `CC(C)C[C@@H]1NC(=O)CNC(=O)[C@H](CC(N)=O)NC(=O)[C@H](CCCNC(=N)N)NC(=O)[C@H]([C@@H](C)O)NC(=O)[C@@H]2CSSC[C@@H]3NC(=O)[C@H]([C@@H](C)O)NC(=O)CNC(=O)CNC(=O)[C@H](C(C)C)NC(=O)[C@@H](NC(=O)[C@@H](NC(=O)[C@H](CCC(=O)O)NC(=O)CN)[C@@H](C)O)CSSC[C@H](NC(=O)[C@H](CO)NC(=O)[C@H](CSSC[C@@H](C(=O)O)NC(=O)[C@H](C(C)C)NC(=O)[C@@H]4CCCN4C1=O)NC(=O)CNC(=O)[C@@H]1CCCN1C(=O)[C@H]([C@@H](C)O)NC(=O)[C@H](CC(N)=O)NC3=O)C(=O)N[C@@H](CO)C(=O)N[C@@H](Cc1c[nH]c3ccccc13)C(=O)N1CCC[C@H]1C(=O)N[C@@H](C(C)C)C(=O)N2`, the IC50 (usually the midpoint of a concentration-inhibition curve) in the assay on RPMI-8226 (Homo sapiens, RPMI8226/S, 72 h) came to 3000 nM; with U-937/GTB (Homo sapiens, U-937/GTB, 72 h) it was 6000 nM.
For `CC[C@H](C)[C@@H]1NC(=O)[C@@H]2CCCN2C(=O)[C@H](CC(C)C)NC(=O)CNC(=O)[C@H](CC(N)=O)NC(=O)[C@H](CCCNC(=N)N)NC(=O)[C@H]([C@@H](C)O)NC(=O)[C@@H]2CSSC[C@@H]3NC(=O)[C@H]([C@@H](C)O)NC(=O)CNC(=O)CNC(=O)[C@H](C(C)C)NC(=O)[C@@H](NC(=O)[C@@H](NC(=O)[C@H](CCC(=O)O)NC(=O)CN)[C@@H](C)O)CSSC[C@H](NC(=O)[C@H](CO)NC(=O)[C@H](CSSC[C@@H](C(=O)O)NC1=O)NC(=O)CNC(=O)[C@@H]1CCCN1C(=O)[C@H]([C@@H](C)O)NC(=O)[C@H](CC(N)=O)NC3=O)C(=O)N[C@@H](CO)C(=O)N[C@@H](Cc1c[nH]c3ccccc13)C(=O)N1CCC[C@H]1C(=O)N[C@@H](C(C)C)C(=O)N2` (stereo in doubt; form 1), the IC50 with RPMI-8226 (Homo sapiens, RPMI8226/S, 72 h) turned out to be 4000 nM; with U-937/GTB (Homo sapiens, U-937/GTB, 72 h), 4000 nM.
On to `CC[C@H](C)[C@@H]1NC(=O)[C@@H]2CCCN2C(=O)[C@H](CC(C)C)NC(=O)CNC(=O)[C@H](CC(N)=O)NC(=O)[C@H](CCCNC(=N)N)NC(=O)[C@H]([C@@H](C)O)NC(=O)[C@@H]2CSSC[C@@H]3NC(=O)[C@H]([C@@H](C)O)NC(=O)CNC(=O)CNC(=O)[C@H](C(C)C)NC(=O)[C@@H](NC(=O)[C@@H](NC(=O)[C@H](CCC(=O)O)NC(=O)CN)[C@@H](C)O)CSSC[C@H](NC(=O)[C@H](CO)NC(=O)[C@H](CSSC[C@@H](C(=O)O)NC1=O)NC(=O)CNC(=O)[C@@H]1CCCN1C(=O)[C@H]([C@@H](C)O)NC(=O)[C@H](CC(N)=O)NC3=O)C(=O)N[C@@H](CO)C(=O)N[C@@H](Cc1c[nH]c3ccccc13)C(=O)N1CCC[C@H]1C(=O)N[C@@H](C(C)C)C(=O)N2` (stereo in doubt; form 2), for which the IC50 stood at 6000 nM in the assay with RPMI-8226 (rpmi8226/s) and 7000 nM with U-937/GTB (u-937/gtb).
`CC[C@H](C)[C@@H]1NC(=O)[C@H](C)NC(=O)[C@H](CO)NC(=O)[C@H](CO)NC(=O)[C@H]([C@@H](C)CC)NC(=O)[C@@H]2CSSC[C@@H]3NC(=O)[C@H](C(C)C)NC(=O)[C@H](CCCCN)NC(=O)[C@H](CO)NC(=O)[C@H](CCCCN)NC(=O)[C@H](CSSC[C@H](NC(=O)[C@H](CO)NC(=O)[C@H](CCC(=O)O)NC(=O)CN)C(=O)N[C@@H](C(C)C)C(=O)N[C@@H](Cc4c[nH]c5ccccc45)C(=O)N[C@@H]([C@@H](C)CC)C(=O)N4CCC[C@H]4C(=O)N2)NC(=O)[C@H](CO)NC(=O)[C@H](CSSC[C@@H](C(=O)O)NC(=O)[C@@H]2CCCN2C(=O)[C@H]([C@@H](C)CC)NC(=O)CNC(=O)[C@H](CC(N)=O)NC(=O)[C@H](CCCNC(=N)N)NC(=O)[C@H](Cc2ccc(O)cc2)NC3=O)NC(=O)CNC1=O` [CYCLOVIOLACIN O2] (H-GESCVWIPCISSAIGCSCKSKVCYRNGIPC-OH; disulfide 4-18, 9-23, 16-30): the concentration for half-maximal inhibition (IC50) stood at 100 nM in the assay on RPMI-8226 (Homo sapiens, RPMI8226/S, 72 h) and 300 nM in the assay on U-937/GTB (Homo sapiens, U-937/GTB, 72 h).
For `COc1cccc2c1C(=O)c1c(O)c3c(c(O)c1C2=O)C[C@@](O)(C(=O)CO)C[C@@H]3O[C@H]1C[C@H](N)[C@H](O)[C@H](C)O1` [DOXORUBICIN] the same measures were 100 nM and 100 nM.
On to `CC[C@H](C)[C@@H]1NC(=O)[C@H](C)NC(=O)[C@H](CO)NC(=O)[C@H]([C@@H](C)O)NC(=O)[C@H]([C@@H](C)CC)NC(=O)[C@@H]2CSSC[C@@H]3NC(=O)[C@H](C(C)C)NC(=O)[C@H](CCCCN)NC(=O)[C@H](CO)NC(=O)[C@H](CCCCN)NC(=O)[C@H](CSSC[C@H](NC(=O)[C@H](CO)NC(=O)[C@H](CCC(=O)O)NC(=O)CN)C(=O)N[C@@H](C(C)C)C(=O)N[C@@H](Cc4c[nH]c5ccccc45)C(=O)N[C@@H]([C@@H](C)CC)C(=O)N4CCC[C@H]4C(=O)N2)NC(=O)[C@H](CO)NC(=O)[C@H](CSSC[C@@H](C(=O)O)NC(=O)[C@@H]2CCCN2C(=O)[C@H]([C@@H](C)CC)NC(=O)CNC(=O)[C@H](CC(N)=O)NC(=O)[C@H](CCCNC(=N)N)NC(=O)[C@H](Cc2ccc(O)cc2)NC3=O)NC(=O)CNC1=O` [VITRI A] (H-GESCVWIPCITSAIGCSCKSKVCYRNGIPC-OH; disulfide 4-18, 9-23, 16-30), for which the IC50 in the assay with RPMI-8226 (Homo sapiens, RPMI8226/S, 72 h) was 1000 nM; in the assay with U-937/GTB (Homo sapiens, U-937/GTB, 72 h), 600 nM.
